# Results published in patent publication US7125878B2, “Substituted pyrroline kinase inhibitors” (Janssen Pharmaceutica, priority 2002, dated 2006).
# “And” between values parts separate entries of the source, which are not always exact repeats. Equal values may be shown once.
# Target: T1, recombinant rabbit GSK-3β protein (Oryctolagus cuniculus, UniProt G1T8E2)
# T1 construct: purchased New England Biolabs
# Assay: Glycogen Synthase Kinase-3 Assay (33P phosphorylation of PPI-2)
# Format: biochemical
# Conditions: @100 nM
# Procedure: Glycogen Synthase Kinase-3 Assay
# Compounds were tested for the ability to inhibit recombinant rabbit GSK-3β protein using the following protocol. The test compound was added to a reaction mixture containing Protein Phosphatase Inhibitor-2 (PPI-2) (Calbiochem) (45 ng), rabbit GSK-3β protein (New England Biolabs) (0.75 units) and ^33P-ATP (1 μCi) in 50 mM Tris-HCl (pH 8.0), 10 mM MgCl2, 0.1% BSA, 1 mM DTT and 100 μM Sodium Vanadate. The mixture was reacted for 90 minutes at 30° C. to allow phosphorylation of the PPI-2 protein and then the protein in the reaction was precipitated using 10% TCA. The precipitated protein was collected on filter plates (MultiScreen-DV/Millipore), which were subsequently washed. Finally, the radioactivity was quantified using a TopCount Scintillation Counter (Packard). […] Staurosporine or Valproate, known inhibitors of GSK-3β, were used as a positive control for screening.
# T1 sequence (G1T8E2 1-432): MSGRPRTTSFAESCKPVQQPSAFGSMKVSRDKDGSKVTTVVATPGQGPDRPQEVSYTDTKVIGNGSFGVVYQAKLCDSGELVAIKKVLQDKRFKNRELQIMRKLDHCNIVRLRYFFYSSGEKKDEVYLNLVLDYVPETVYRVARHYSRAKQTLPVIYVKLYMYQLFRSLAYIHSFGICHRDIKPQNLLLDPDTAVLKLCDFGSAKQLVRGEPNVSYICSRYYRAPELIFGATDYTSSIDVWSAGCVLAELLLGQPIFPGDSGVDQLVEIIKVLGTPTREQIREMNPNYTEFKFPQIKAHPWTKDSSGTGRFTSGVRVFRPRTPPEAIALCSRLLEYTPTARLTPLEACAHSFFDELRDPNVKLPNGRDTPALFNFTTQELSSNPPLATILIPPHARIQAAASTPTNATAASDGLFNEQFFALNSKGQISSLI
row,Compound,inhibition at 0.1 µM [%]
1,"O=C1NC(=O)C(c2cn(CCCO)c3ncccc23)=C1c1n[nH]c2ccccc12 [Cpd 6, 3-[1-(3-hydroxypropyl)-1H-pyrrolo[2,3-b]pyridin-3-yl]-4-(1H-indazol-3-yl)-1H-pyrrole-2,5-dione]",56
2,"O=C1NC(=O)C(c2cn(CCCO)c3ncccc23)=C1c1ncc[nH]1 [Cpd 17, 3-[1-(3-hydroxypropyl)-1H-pyrrolo[2,3-b]pyridin-3-yl]-4-(1H-imidazol-2-yl)-1H-pyrrole-2,5-dione]",19

# Same assay, conditions: @200 nM
row,Compound,inhibition at 0.2 µM [%]
1,"O=C1NC(=O)C(c2cn(CCCO)c3ncccc23)=C1c1cn(CCCO)cn1 [Cpd 18, 3-[1-(3-hydroxypropyl)-1H-imidazol-4-yl]-4-[1-(3-hydroxypropyl)-1H-pyrrolo[2,3-b]pyridin-3-yl]-1H-pyrrole-2,5-dione]",29
2,"O=C1NC(=O)C(c2cn(CCCO)c3ncccc23)=C1c1cn(CCO)cn1 [Cpd 19, 3-[1-(2-hydroxyethyl)-1H-imidazol-4-yl]-4-[1-(3-hydroxypropyl)-1H-pyrrolo[2,3-b]pyridin-3-yl]-1H-pyrrole-2,5-dione]",25

# Same assay, conditions: @1 μM; two numbers = different days
row,Compound,inhibition at 1 µM [%]
1,"Cc1noc(C)c1C1=C(c2cn(CCCO)c3ncccc23)C(=O)NC1=O [Cpd 44, 3-(3,5-Dimethyl-isoxazol-4-yl)-4-[1-(3-hydroxy-propyl)-1H-pyrrolo[2,3-b]pyridin-3-yl]-pyrrole-2,5-dione]",32

# Same assay, conditions: two numbers = data obtained on different days
row,Compound,IC50
1,"CCn1cc(C2=C(c3cn(CCCO)c4ncccc34)C(=O)NC2=O)c2cccnc21 [Cpd 7, 3-(1-ethyl-1H-pyrrolo[2,3-b]pyridin-3-yl)-4-[1-(3-hydroxypropyl)-1H-pyrrolo[2,3-b]pyridin-3-yl]-1H-pyrrole-2,5-dione]",51 nM
2,"COc1ccccc1C1=C(c2cn(CCCO)c3ncccc23)C(=O)NC1=O [Cpd 8, 3-[1-(3-hydroxypropyl)-1H-pyrrolo[2,3-b]pyridin-3-yl]-4-(2-methoxyphenyl)-1H-pyrrole-2,5-dione]",3 nM
3,"COc1cccc(C2=C(c3cn(CCCO)c4ncccc34)C(=O)NC2=O)c1 [Cpd 9, 3-[1-(3-hydroxypropyl)-1H-pyrrolo[2,3-b]pyridin-3-yl]-4-(3-methoxyphenyl)-1H-pyrrole-2,5-dione]",11 nM
4,"O=C1NC(=O)C(c2cn(CCCO)c3ncccc23)=C1c1ccc(F)cc1Cl [Cpd 10, 3-(2-chloro-4-fluorophenyl)-4-[1-(3-hydroxypropyl)-1H-pyrrolo[2,3-b]pyridin-3-yl]-1H-pyrrole-2,5-dione]",10 nM
5,"O=C1NC(=O)C(c2cn(CCCO)c3ncccc23)=C1c1ccccc1C(F)(F)F [Cpd 11, 3-[1-(3-hydroxypropyl)-1H-pyrrolo[2,3-b]pyridin-3-yl]-4-[2-(trifluoromethyl)phenyl]-1H-pyrrole-2,5-dione]",4 nM
6,"O=C1NC(=O)C(c2cn(CCCO)c3ncccc23)=C1c1ncc(C(F)(F)F)cc1Cl [Cpd 13, 3-[3-chloro-5-(trifluoromethyl)-2-pyridinyl]-4-[1-(3-hydroxypropyl)-1H-pyrrolo[2,3-b]pyridin-3-yl]-1H-pyrrole-2,5-dione]",36 nM
7,"O=C1NC(=O)C(c2cn(CCCO)c3ncccc23)=C1c1cccs1 [Cpd 14, 3-[1-(3-hydroxypropyl)-1H-pyrrolo[2,3-b]pyridin-3-yl]-4-(2-thienyl)-1H-pyrrole-2,5-dione]",6 nM
8,"O=C1NC(=O)C(c2cn(CCCO)c3ncccc23)=C1c1cc(Cl)sc1Cl [Cpd 15, 3-(2,5-dichloro-3-thienyl)-4-[1-(3-hydroxypropyl)-1H-pyrrolo[2,3-b]pyridin-3-yl]-1H-pyrrole-2,5-dione]",6 nM
9,"O=C1NC(=O)C(c2cn(CCCO)c3ncccc23)=C1c1ccn(CCCO)n1 [Cpd 16, 3-[1-(3-hydroxypropyl)-1H-pyrazol-3-yl]-4-[1-(3-hydroxypropyl)-1H-pyrrolo[2,3-b]pyridin-3-yl]-1H-pyrrole-2,5-dione]",100 nM
10,"O=C1NC(=O)C(c2cn(CCCO)c3ncccc23)=C1/C=C/c1ccc(F)cc1 [Cpd 22, 3-[(E)-2-(4-fluorophenyl)ethenyl]-4-[1-(3-hydroxypropyl)-1H-pyrrolo[2,3-b]pyridin-3-yl]-1H-pyrrole-2,5-dione]",330 nM
11,"O=C1NC(=O)C(c2cn(CCCO)c3ncccc23)=C1C1=CCCCO1 [Cpd 23, 3-(3,4-dihydro-2H-pyran-6-yl)-4-[1-(3-hydroxypropyl)-1H-pyrrolo[2,3-b]pyridin-3-yl]-1H-pyrrole-2,5-dione]",158 nM and 51 nM
12,"O=C1NC(=O)C(c2cn(CCCO)c3ncccc23)=C1c1cc[nH]c1 [Cpd 24, 4-[1-(3-hydroxypropyl)-1H-pyrrolo[2,3-b]pyridin-3-yl]-[3,3′-bi-1H-pyrrole]-2,5-dione]",15 nM and 8 nM
13,"O=C1NC(=O)C(c2cn(CCCO)c3ncccc23)=C1c1cc2ccccc2o1 [Cpd 25, 3-(2-benzofuranyl)-4-[1-(3-hydroxypropyl)-1H-pyrrolo[2,3-b]pyridin-3-yl]-1H-pyrrole-2,5-dione]",71 nM and 44 nM
14,"Cn1ccc(C2=C(c3cn(CCCO)c4ncccc34)C(=O)NC2=O)n1 [Cpd 26, 3-[1-(3-hydroxypropyl)-1H-pyrrolo[2,3-b]pyridin-3-yl]-4-(1-methyl-1H-pyrazol-3-yl)-1H-pyrrole-2,5-dione]",70 nM and 120 nM
15,"O=C1NC(=O)C(c2cn(CCCO)c3ncccc23)=C1c1ccc(O)c(O)c1 [Cpd 32, 3-(3,4-dihydroxyphenyl)-4-[1-(3-hydroxypropyl)-1H-pyrrolo[2,3-b]pyridin-3-yl]-1H-pyrrole-2,5-dione]",67 nM and 95 nM
16,"O=C1NC(=O)C(c2cn(CCCO)c3ncccc23)=C1c1cncnc1 [Cpd 41, 3-[1-(3-Hydroxy-propyl)-1H-pyrrolo[2,3-b]pyridin-3-yl]-4-pyrimidin-5-yl-pyrrole-2,5-dione]",37 nM and 42 nM
17,"O=C1NC(=O)C(c2cccc3cccnc23)=C1c1cn(CCCO)c2ncccc12 [Cpd 42, 3-[1-(3-Hydroxy-propyl)-1H-pyrrolo[2,3-b]pyridin-3-yl]-4-quinolin-8-yl-pyrrole-2,5-dione]",123 nM and 106 nM
18,"O=C1NC(=O)C(c2cn(CCCO)c3ncccc23)=C1c1cc2ccccc2s1 [Cpd 43, 3-Benzo[b]thiophen-2-yl-4-[1-(3-hydroxy-propyl)-1H-pyrrolo[2,3-b]pyridin-3-yl]-pyrrole-2,5-dione]",198 nM and 126 nM
19,"O=C1NC(=O)C(c2cn(CCCO)c3ncccc23)=C1c1cccoc1=O [Cpd 45, 3-[1-(3-Hydroxy-propyl)-1H-pyrrolo[2,3-b]pyridin-3-yl]-4-(2-oxo-2H-pyran-3-yl)-pyrrole-2,5-dione]",28 nM and 18 nM
20,"Cn1ccc(C2=C(c3cn(CCCO)c4ncccc34)C(=O)NC2=O)c1 [Cpd 46, 4-[1-(3-Hydroxy-propyl)-1H-pyrrolo[2,3-b]pyridin-3-yl]-1′-methyl-1′H-[3,3′]bipyrrolyl-2,5-dione]",38 nM and 37 nM
21,"O=C1NC(=O)C(c2cn(CCCO)c3ncccc23)=C1c1ccn(Cc2ccccc2)c1 [Cpd 48, 1′-Benzyl-4-[1-(3-hydroxy-propyl)-1H-pyrrolo[2,3-b]pyridin-3-yl]-1′H-[3,3′]bipyrrolyl-2,5-dione]",47 nM and 38 nM
22,"O=C1NC(=O)C(c2cn(CCCO)c3ncccc23)=C1c1cnc(-c2ccccc2)o1 [Cpd 49, 3-[1-(3-Hydroxy-propyl)-1H-pyrrolo[2,3-b]pyridin-3-yl]-4-(2-phenyl-oxazol-5-yl)-pyrrole-2,5-dione]",56 nM and 58 nM
23,"O=C1NC(=O)C(c2cn(CCCO)c3ncccc23)=C1c1cc2n(n1)CCC2 [Cpd 50, 3-(5,6-Dihydro-4H-pyrrolo[1,2-b]pyrazol-2-yl)-4-[1-(3-hydroxy-propyl)-1H-pyrrolo[2,3-b]pyridin-3-yl]-pyrrole-2,5-dione]",88 nM and 107 nM
